Results taken from US20230113037A1 (Bayer Aktiengesellschaft, priority 2019, published 2023).
Read-outs that look alike come from different tables or passages of the source.

Tests used:
AHR [1] = target: T1, AHR (Homo sapiens, UniProt P35869); assay: In vitro assay 1: antagonism in human cell line (AHR transactivation, firefly luciferase reporter, kynurenic acid prestimulated); assay type: cell-based; conditions: AHR Antagonism Human IC50 [M]
T1 construct: U87 MG glioblastoma cells (ATCC #HTB-14) endogenously expressing AHR; endogenous in cells; host or cells: U87 MG glioblastoma cells (ATCC #HTB-14)
T1 sequence (P35869 11-848): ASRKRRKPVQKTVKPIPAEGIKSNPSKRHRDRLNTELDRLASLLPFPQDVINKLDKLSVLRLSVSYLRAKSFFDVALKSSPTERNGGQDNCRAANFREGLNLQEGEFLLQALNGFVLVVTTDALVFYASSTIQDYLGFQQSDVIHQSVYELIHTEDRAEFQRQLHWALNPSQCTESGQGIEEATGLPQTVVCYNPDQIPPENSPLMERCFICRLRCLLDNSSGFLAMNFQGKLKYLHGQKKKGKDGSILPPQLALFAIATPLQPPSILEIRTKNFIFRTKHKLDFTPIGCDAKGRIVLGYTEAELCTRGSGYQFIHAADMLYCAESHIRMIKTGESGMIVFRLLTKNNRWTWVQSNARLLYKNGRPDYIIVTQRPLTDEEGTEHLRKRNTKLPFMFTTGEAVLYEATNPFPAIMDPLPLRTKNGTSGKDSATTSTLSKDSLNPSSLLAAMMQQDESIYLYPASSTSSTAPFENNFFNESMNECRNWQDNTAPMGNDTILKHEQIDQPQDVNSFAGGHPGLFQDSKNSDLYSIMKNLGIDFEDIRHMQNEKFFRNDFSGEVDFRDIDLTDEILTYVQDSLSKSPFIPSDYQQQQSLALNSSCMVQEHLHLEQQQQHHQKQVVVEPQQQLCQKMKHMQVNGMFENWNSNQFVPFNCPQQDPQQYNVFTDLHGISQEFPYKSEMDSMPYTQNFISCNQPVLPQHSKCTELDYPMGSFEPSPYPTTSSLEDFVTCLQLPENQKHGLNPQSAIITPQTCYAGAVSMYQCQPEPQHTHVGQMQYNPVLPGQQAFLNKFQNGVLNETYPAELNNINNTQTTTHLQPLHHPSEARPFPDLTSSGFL
In short: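 U87 MG + DRE-firefly/constitutive-Renilla stable reporters; kynurenic acid prestim; dual-luc read; Renilla = tox; normalized vs pos/neg controls (pos: 150 μM KYNA + 5 μM staurosporine).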

AHR [2] = target: T2, AHR (Mus musculus, UniProt P30561); assay: In vitro assay 3: antagonism in mouse cell line (AHR transactivation, firefly luciferase reporter, kynurenic acid prestimulated); assay type: cell-based
T2 sequence (P30561 1-848 P471L/N533S/M589L): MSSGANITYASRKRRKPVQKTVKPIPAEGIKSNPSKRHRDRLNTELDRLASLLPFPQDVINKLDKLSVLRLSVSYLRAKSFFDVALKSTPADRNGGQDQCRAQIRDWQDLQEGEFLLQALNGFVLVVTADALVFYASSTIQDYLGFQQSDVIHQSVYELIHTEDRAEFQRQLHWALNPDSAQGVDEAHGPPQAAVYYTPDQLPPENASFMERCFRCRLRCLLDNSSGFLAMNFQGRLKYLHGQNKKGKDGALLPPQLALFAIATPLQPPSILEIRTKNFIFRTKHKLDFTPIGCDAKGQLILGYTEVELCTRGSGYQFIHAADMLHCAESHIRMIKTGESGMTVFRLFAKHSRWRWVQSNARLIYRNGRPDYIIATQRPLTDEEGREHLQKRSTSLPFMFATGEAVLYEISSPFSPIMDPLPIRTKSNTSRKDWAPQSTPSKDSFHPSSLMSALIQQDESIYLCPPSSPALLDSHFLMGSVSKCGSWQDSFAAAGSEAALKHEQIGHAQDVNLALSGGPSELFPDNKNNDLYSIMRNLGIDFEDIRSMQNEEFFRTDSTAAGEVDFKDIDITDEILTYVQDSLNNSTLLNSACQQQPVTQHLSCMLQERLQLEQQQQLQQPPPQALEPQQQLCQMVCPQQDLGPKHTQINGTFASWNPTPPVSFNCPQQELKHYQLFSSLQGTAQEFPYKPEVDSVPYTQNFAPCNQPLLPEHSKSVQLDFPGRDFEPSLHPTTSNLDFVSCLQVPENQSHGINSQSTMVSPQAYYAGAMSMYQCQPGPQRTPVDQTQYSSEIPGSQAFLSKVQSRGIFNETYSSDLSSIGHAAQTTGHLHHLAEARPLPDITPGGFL
In short: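 Cells were first stimulated with kynurenic acid, then exposed to test compound, after which firefly luciferase from a DRE-containing AHR reporter was read out. Signal was scaled between positive and negative controls. Cells not given kynurenic acid provided the inhibition reference.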

[3] = Hepa 1c1c7 cells, 200 μM kynurenic acid, 20 hours, firefly luciferase reporter, read-out: AHR Antagonism Mouse IC50
[4] = mouse Hepa 1c1c7 cells, 200 μM kynurenic acid, 20 hours, read-out: AHR Antagonism Mouse IC50

Structure (SMILES)	IC50 (AHR [1]; firefly luciferase reporter)	IC50 (AHR [2]; [3])	IC50 (AHR [1])	IC50 (AHR [2]; [4])	IC50 (AHR [2]; read-out: AHR Antagonism Mouse IC50, Hepa 1c1c7 cells, 200 μM kynurenic acid, 20 hours, firefly luciferase reporter)
CCNC(=O)[C@H](CC)Nc1nc2c(Br)cccc2c2nc(-c3ccc(Cl)cc3OC(F)F)nn12 [Example 799, (2S)-2-({7-bromo-2-[4-chloro-2-(difluoromethoxy)phenyl][1,2,4]triazolo[1,5-c]quinazolin-5-yl}amino)-N-ethylbutanamide]	4.21e-08 M	18.5 nM	–	–	–
COc1ccc(-c2nc3c4ccccc4nc(N[C@@H]4CCCCNC4=O)n3n2)cc1C(F)(F)F [Example 722, (3R)-3-({2-[4-methoxy-3-(trifluoromethyl)phenyl][1,2,4]triazolo[1,5-c]quinazolin-5-yl}amino)azepan-2-one]	–	–	7.2e-09 M	6.63 nM	–
O=C1NCCCC[C@H]1Nc1nc2ccccc2c2nc(-c3cccc(Cl)c3Cl)nn12 [Example 196, (3R)-3-{[2-(2,3-dichlorophenyl)[1,2,4]triazolo[1,5-c]quinazolin-5-yl]amino}azepan-2-one]	–	–	4.09e-09 M	1.11 nM	–
CCCNC(=O)[C@@H](C)Nc1nc2ccccc2c2nc(-c3cccc(OC(F)(F)F)c3)nn12 [Example 321, N-propyl-N2-{2-[3-(trifluoromethoxy)phenyl][1,2,4]triazolo[1,5-c]quinazolin-5-yl}-D-alaninamide]	–	–	2.06e-08 M	12.4 nM	–
CNC(=O)[C@H](C)Nc1nc2ccccc2c2nc(-c3cccc(OC)c3)nn12 [Example 102, N^2-[2-(3-methoxyphenyl)[1,2,4]triazolo[1,5-c]quinazolin-5-yl]-N-methyl-L-alaninamide]	–	–	6.01e-07 M	246 nM	–
COc1ccc(-c2nc3c4cccc(Br)c4nc(N[C@@H](C(=O)O)C(C)C)n3n2)cc1 [Example 872, N-[7-bromo-2-(4-methoxyphenyl)[1,2,4]triazolo[1,5-c]quinazolin-5-yl]-D-valine]	6.57e-09 M	15.8 nM	–	–	–
O=C1NCCNC[C@H]1Nc1nc2ccccc2c2nc(-c3cccc(Cl)c3Cl)nn12 [Example 263, (6R)-6-{[2-(2,3-dichlorophenyl)[1,2,4]triazolo[1,5-c]quinazolin-5-yl]amino}-1,4-diazepan-5-one]	–	–	3.86e-07 M	8.93 nM	–
CC[C@@H](Nc1nc2c(C(F)(F)F)cccc2c2nc(-c3ccnn3C)nn12)C(N)=O [Example 806, (2R)-2-{[2-(1-methyl-1H-pyrazol-5-yl)-7-(trifluoromethyl)[1,2,4]triazolo[1,5-c]quinazolin-5-yl]amino}butanamide]	3.49e-09 M	1.14 nM	–	–	–
O=C1NCCNC[C@H]1Nc1nc2c(Br)cccc2c2nc(-c3cn[nH]c3)nn12 [Example 976, (6R)-6-{[7-bromo-2-(1H-pyrazol-4-yl)[1,2,4]triazolo[1,5-c]quinazolin-5-yl]amino}-1,4-diazepan-5-one]	3.11e-06 M	4640 nM	–	–	–
COc1ccc(-c2nc3c4ccccc4nc(N[C@@H]4CCCCNC4=O)n3n2)cc1OC [Example 624, (3R)-3-{[2-(3,4-dimethoxyphenyl)[1,2,4]triazolo[1,5-c]quinazolin-5-yl]amino}azepan-2-one]	–	–	3.49e-09 M	1.24 nM	–
Cn1cc(-c2nc3c4cccc(C(F)(F)F)c4nc(N[C@@H]4CCCCNC4=O)n3n2)cn1 [Example 583, (3R)-3-{[2-(1-methyl-1H-pyrazol-4-yl)-7-(trifluoromethyl)[1,2,4]triazolo[1,5-c]quinazolin-5-yl]amino}azepan-2-one]	–	–	9.48e-10 M	3.11 nM	–
CCOC(=O)[C@@H](C)Nc1nc2c(Br)cccc2c2nc(-c3ccc(OC)cc3)nn12 [Example 865, ethyl N-[7-bromo-2-(4-methoxyphenyl)[1,2,4]triazolo[1,5-c]quinazolin-5-yl]-D-alaninate]	4.02e-09 M	11.8 nM	–	–	–
COc1ccc(-c2nc3c4c(OC)cccc4nc(N[C@@H]4CNCCNC4=O)n3n2)cc1 [Example 291, (6R)-6-{[10-methoxy-2-(4-methoxyphenyl)[1,2,4]triazolo[1,5-c]quinazolin-5-yl]amino}-1,4-diazepan-5-one]	–	–	2.65e-06 M	2680 nM	–
C[C@@H](Nc1nc2c(Br)cccc2c2nc(-c3cnn(C)c3)nn12)C(=O)N1C[C@@H]2C[C@H]1CO2 [Example 915, (2R)-2-{[7-bromo-2-(1-methyl-1H-pyrazol-4-yl)[1,2,4]triaozlo[1,5-c]quinazolin-5-yl]amino}-1-[(1S,4S)-2-oxa-5-azabicyclo[2.2.1]heptna-5-yl]propan-1-one]	1.74e-08 M	18.7 nM	–	–	–
C[C@@H](Nc1nc2c(C(F)(F)F)cccc2c2nc(-c3cnn(C)c3)nn12)C(=O)N1CCC(N(C)C)C1 (mixture of isomers) [Example 876, (2R)-1-[(3R/S)-3-(dimethylamino)pyrrolidin-1-yl]-2-{[2-(1-methyl-1H-pyrazol-4-yl)-7-(trifluoromethyl)[1,2,4]triazolo[1,5-c]quinazolin-5-yl]amino}propan-1-one]	5.39e-08 M	110 nM	–	–	–
Cc1ccc2nc(N[C@@H]3CCCCNC3=O)n3nc(-c4cn(C)nc4C(F)(F)F)nc3c2c1 [Example 407, (3R)-3-({9-methyl-2-[1-methyl-3-(trifluoromethyl)-1H-pyrazol-4-yl][1,2,4]triazolo[1,5-c]quinazolin-5-yl}amino)azepan-2-one]	–	–	3.1e-07 M	246 nM	–
CC(C)n1cc(-c2nc3c4cccc(S(C)(=O)=O)c4nc(N[C@@H]4CNCCNC4=O)n3n2)cn1 [Example 944, (6R)-6-({7-(methanesulfonyl)-2-[1-(propan-2-yl)-1H-pyrazol-4-yl][1,2,4]triazolo[1,5-c]quinazolin-5-yl}amino)-1,4-diazepan-5-one]	1.67e-06 M	4620 nM	–	–	–
COc1ccc(-c2nc3c4cccc(Br)c4nc(N[C@H](C)C(=O)N4CCOC[C@H]4C)n3n2)cc1 [Example 911, (2R)-2-{[7-bromo-2-(4-methoxyphenyl)[1,2,4]triazolo[1,5-c]quinazolin-5-yl]amino}-1-[(3R)-3-methylmorpholin-4-yl]propan-1-one]	1.57e-09 M	–	–	–	1.98 nM
Cc1ccccc1-c1nc2c3ccccc3nc(NC3CCCNC3=O)n2n1 (single isomer, unassigned) [Example 48, 3-{[2-(2-methylphenyl)[1,2,4]triazolo[1,5-c]quinazolin-5-yl]amino}piperidin-2-one]	–	–	3.2e-08 M	62 nM	–
COc1ccc2nc(N[C@@H]3CCCCNC3=O)n3nc(-c4cnn(C)c4)nc3c2c1 [Example 238, (3R)-3-{[9-methoxy-2-(1-methyl-1H-pyrazol-4-yl)[1,2,4]triazolo[1,5-c]quinazolin-5-yl]amino}azepan-2-one]	–	–	1.69e-07 M	344 nM	–
COc1ccc(-c2nc3c4ccccc4nc(NC4CNCCNC4=O)n3n2)cc1 (single isomer, unassigned) [Example 35, 6-{[2-(4-methoxyphenyl)[1,2,4]triazolo[1,5-c]quinazolin-5-yl]amino}-1,4-diazepan-5-one]	–	–	1.55e-06 M	60.4 nM	–
